Source: patent publication US20260072027A1, “Peptides And Method” (Queen Mary University of London, priority 2022, published 2026)
Where “and” joins values, the source holds several entries; their conditions need not be identical. Equal entries are not always repeated. Entries after “also recorded” stand apart in the source; their conditions may differ. Where no end group is shown, it is not given here.

Key:
[1] = tested on: autoantibodies to oxPTM-INS; experiment: Competitive displacement ELISA, plate coated with oxidised insulin; assay type: binding, human; settings: for inhibition of type 1 diabetes serum binding to oxPTM-INS (in words): sera pre-incubated with peptide competitor
Description: A competitive displacement assay was performed to map the exact epitope, namely the exact amino acid sequence binding specificities and to test the binding to native peptides versus oxidised insulin peptides. The binding to the peptide was done by direct ELISA on the native or modified peptides or by competition ELISA. Initially native synthetic peptide was oxidised by exposing to 0.05 mM CuCl2; 90 mM H2O2; 10 mM NaOCl. Native and modified peptides were fractionated by AKTA to evaluated changes in molecular profile. AKTA fractions were then tested by ELISA for reactivity (FIGS. 2 and 3). We next perform competition ELISA with the native peptides and peptides exposed to 0.05 mM CuCl2; 90 mM H2O2; 10 mM NaOCl. Serum samples were pre-incubated with either native insulin peptides or oxidised insulin peptides. Finally, based on the amino acid sequence of the identified peptides we predicted the amino acids that would be oxidised by ^●OH and HOCl and designed synthetic peptides that contain the oxidised amino acids in the synthesis. Synthetic peptides were produced by standard commercially available methods, specifically by Peptide Protein Research Ltd. Briefly, peptide synthesis was performed by automated solid phase peptide synthesis (SPPS), which was followed by purification. Each individual amino acid was added to the growing chain according to the sequence. Where specified, dihydroxyphenylalanine was added to replace Tyr or cysteate were added to replace Cys. Similarly, these peptides were tested by competition ELISA. The table below describe the different competition ELISA performed:
Serum samples from children with type 1 diabetes were pre-incubated with the synthetic peptides before they were added to the native insulin or oxidised that were previously coated on the ELISA plate. If the antibodies in the serum sample bind to the peptide they will no longer bind to the insulin or oxidised insulin on the plate-competition ELISA. 1:200 dilutions of serum samples from T1D serum samples were pre-incubated for 2 hr at room temperature with the various peptides as shown in the table above. After incubation, serum/peptide mix was added to the ELISA plate previously coated overnight with either native insulin or oxidised insulin for an additional 2 hr incubation. Plates were then washed in a plate washer three times with PBS 0.05% tween. After washing, 100 ul of anti-human IgG diluted 1:1000 in 1% milk-PBS 0.05% tween were added for additional 1 hour and 30 min incubation. After washing, ELISA was developed by adding 100 ul of TMB (10 mg/ml in DMSO) in 10 ml of 0.1 M sodium acetate plus 2 ul of H2O2. Reaction was stopped by adding 0.5 M H2SO4 (usually 20 min for insulin ELISA).
To assess the binding specificity of serum samples to identified peptides, a competitive ELISA was performed. The ELISA was carried out following the method described above, except that the serum samples were pre-incubated for 2 h with and without 10 μg/ml peptides as competitors, before adding the serum samples to the insulin coated ELISA plate.

[2] = tested on: CD4+ T-cells (PBMCs); experiment: In vitro peptide stimulation and T-cell proliferation assay, CD4+; assay type: cell-based, human; settings: for CD4+ mean SI (stimulation index): Study cohort 2
Method in brief: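 CellTrace Violet-labelled fresh PBMCs from type 1 diabetic and healthy donors cultured 7 days in 5% autologous plasma with or without 20 μg/ml insulin peptides. Proliferation measured by flow cytometry as dye dilution within the CD4+ or CD8+ subset. Stimulation index = % proliferation stimulated/% unstimulated.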

Substance: LVEALYLVCGERGFFYTPKT [insulin B:11-30 native peptide]
- inhibition of type 1 diabetes serum binding to oxPTM-INS (in words) ([1]; listed as Nt-INSP-4): comparable inhibition as oxPTM-INSP-4; also recorded: comparable inhibition compared to oxPTM-INSP-4; also recorded: blocked type 1 diabetes serum binding to oxPTM-INS like oxPTM-INSP-4
- CD4+ T-cell response, subjects with SI > 1 (%) ([2]; Controls (N = 11)): (81.8%)
- CD4+ T-cell response, subjects with SI > 3 (%) ([2]; Controls (N = 11)): (45.5%)
- CD4+ T-cell response, subjects with SI > 5 (%) ([2]; Controls (N = 11)): (27.3%)
- CD4+ T-cell response, subjects with SI > 10 (%) ([2]; Controls (N = 11)): (9.1%)
- CD4+ T-cell response, subjects with SI > 3 (%) ([2]; Controls (N = 11), listed as Nt-INSP-4): 45.5%
- CD4+ T-cell response, subjects with SI > 1 (%) ([2]; Type 1 diabetes (N = 18)): (100%)
- CD4+ T-cell response, subjects with SI > 3 (%) ([2]; Type 1 diabetes (N = 18)): (66.7%)
- CD4+ T-cell response, subjects with SI > 5 (%) ([2]; Type 1 diabetes (N = 18)): (5.3%)
- CD4+ T-cell response, subjects with SI > 10 (%) ([2]; Type 1 diabetes (N = 18)): (50.0%)
- CD4+ T-cell response, subjects with SI > 3 (%) ([2]; Type 1 diabetes (N = 18), listed as Nt-INSP-4): 66.7%
- CD4+ mean SI (stimulation index) ([2]; controls): 6.89±3.4
- CD4+ mean SI (stimulation index) ([2]; type 1 diabetes): 119.8±51.69

Substance: oxPTM-INSP-3: oxidised forms of insulin peptide 3 (A:12-21), in house oxidised or in silico derivatives (SLYQLENYCN; not fully specified (N-terminus); also: oxidised forms, in house oxidised or in silico derivatives, modified residues not defined)
- inhibition of type 1 diabetes serum binding to oxPTM-INS (in words) [1]: strongly inhibited binding to oxPTM-INS; also recorded: able to inhibit the binding
- reduced binding to oxidised whole insulin ([1]; type 1 diabetes sera pre-incubated with peptide, listed as Oxidised peptide 3): 35-80% and 40-80%
- CD4+ T-cell response, subjects with SI > 3 (%) ([2]; Controls (N = 11)): 9.1%
- CD4+ T-cell response, subjects with SI > 3 (%) ([2]; Type 1 diabetes (N = 18)): 22.2%
